Data from patent publication US11869191B2, “System and method for tissue viability screening” (THE REGENTS OF THE UNIVERSITY OF CALIFORNIA, priority 2019, dated 2024).

Test system: pre-implantation mouse embryos
Test: Inhibition of glycolysis, phasor-FLIM of NADH lifetime in embryos
Assay type: cell-based
Details: 1 mM, early blastocyst stage embryos; g value vs control p-value=3.88E-09
Experimental: Embryos were placed in 25 μl microdroplets of KSOMaa (Invitrogen) with the appropriate inhibitors covered in mineral oil (Sigma). Both of the two chemical inhibitors, rotenone and antimycin A cocktail (R&A) and 2-Deoxyglucose (2DeoxyG) were dissolved in KSOMaa. For R&A, the inhibitor was prepared to perform dose dependence measurements for a final concentration of 100 nM and 500 nM. For 2DeoxyG, the inhibitor has a final concentration of 1 mM. KSOMaa was used as a solvent and culture media for the control group and treatment group embryos.
Fluorescence lifetime images of the pre-implantation embryos were acquired on Zeiss LSM710 (Carl Zeiss, Jena, Germany), a multi-photon microscope coupled with a Ti: Sapphire laser (Spectra-Physics Mai Tai, Mountain View, CA) with 80 MHz repetition rate. […] A dichroic filter at 690 nm was used to separate the fluorescence signal from the laser light. And the emission signal was split with 496 nm LP filter and detected in two channels using a band pass filter 460/80 and a 540/50 filter. […] FLIM calibration of the system was performed by measuring the known lifetime of a fluorophore coumarin 6 (dissolved in ethanol), which has a known fluorescence lifetime of T=2.5 ns(37, 38). […] FLIM data were acquired and processed by the SimFCS software developed at the Laboratory of Fluorescence Dynamics (LFD). […]

O=CC[C@@H](O)[C@H](O)[C@H](O)CO [2DeoxyG, 2-Deoxy-D-Glucose]
phasor-FLIM lifetime distribution (free/bound NADH) compared to controls: shifted the phasor-FLIM distribution to longer lifetime
